Results reported in patent US10266493B2, “Thioacetate compounds, compositions and methods of use” (Ardea Biosciences, Inc., priority 2010, dated 2019).
pEC50: −log10 of the molar value.

Target: URAT1 (Homo sapiens, UniProt Q96S37)
Assay: URAT1-model assay: 14C-uric acid transport in HEK293/URAT1-model cells
Format: cell-based
Settings: HEK293 cells transfected with model URAT1 construct; 14C-uric acid uptake, 10 minutes at room temperature; read-out: URAT1 EC50 Activity Ranking
Protocol: Transfections of HEK293 cells with a model URAT1 construct was performed using L2000 transfection reagent (Invitrogen) as described by the manufacturer. After 24 h the transfected cells were split into 10 cm tissue culture plates and grown for 1 day after which the medium was replaced with fresh growth medium containing G418 (Gibco) at 0.5 mg/ml final concentration. Drug-resistant colonies were selected after approximately 8 days and then tested for ^14C-uric acid transport activity. The HEK293/URAT1-model cells are plated on Poly-D-Lysine Coated 96-well Plates at a density of 125,000 cells per well.
Cells were grown overnight (20-26 hours) at 37° C. in an incubator. […] Plates were incubated at room temperature for 10 minutes then washed 3 times with 50 μl Wash Buffer and 3 times with 250 μl Wash Buffer. Microscint 20 Scintillation Fluid was added and plates were incubated overnight at room temperature to equilibrate. Plates are then read on the TopCount Plate Reader and an EC50 value generated.

Sequence of URAT1 (Q96S37 whole entry, looked up): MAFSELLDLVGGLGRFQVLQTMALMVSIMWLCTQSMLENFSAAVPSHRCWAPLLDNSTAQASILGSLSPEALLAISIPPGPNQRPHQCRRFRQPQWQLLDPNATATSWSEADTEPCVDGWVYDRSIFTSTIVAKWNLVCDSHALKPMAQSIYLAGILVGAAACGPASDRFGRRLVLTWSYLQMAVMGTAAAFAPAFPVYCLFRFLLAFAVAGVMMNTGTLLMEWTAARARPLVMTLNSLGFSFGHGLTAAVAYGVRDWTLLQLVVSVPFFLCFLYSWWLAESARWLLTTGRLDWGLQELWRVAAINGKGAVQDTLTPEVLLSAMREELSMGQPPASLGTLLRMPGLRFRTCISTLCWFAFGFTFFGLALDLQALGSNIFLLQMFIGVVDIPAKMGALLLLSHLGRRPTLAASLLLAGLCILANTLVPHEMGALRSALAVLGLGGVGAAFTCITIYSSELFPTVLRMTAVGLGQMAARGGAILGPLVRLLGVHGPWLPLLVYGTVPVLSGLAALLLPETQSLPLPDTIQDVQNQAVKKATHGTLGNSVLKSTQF

| Structure (SMILES) | pEC50 |
| --- | --- |
| N#Cc1ccc(-c2cnccc2SCC(=O)O)c2ccccc12 [Example 2B] | 5.00 to 6.30 |
| CC(C)(Sc1ccncc1-c1ccc2c(c1)OCO2)C(=O)O [Example 2E] | 5.00 to 6.30 |
| N#Cc1ccc(-c2cnccc2SC(F)(F)C(=O)O)c2ccccc12 [Example 2FF] | 5.00 to 6.30 |
| CC(C)(Sc1ccncc1-c1cc2ccccc2[nH]1)C(=O)O [Example 2G] | 5.00 to 6.30 |
| CC(C)(Sc1ccncc1-c1ccc(C(=O)O)cc1F)C(=O)O [Example 2HHH] | 5.00 to 6.30 |
| COc1ncc(-c2cnccc2SC(C)(C)C(=O)O)cn1 [Example 2HH] | 5.00 to 6.30 |
| CC(C)(Sc1ccncc1-c1ccc2c(c1)OCCO2)C(=O)O [Example 2I] | 5.00 to 6.30 |
| Cc1ccc(-c2cnccc2SC(C)(C)C(=O)O)cn1 [Example 2LL] | 5.00 to 6.30 |
| CC(C)(Sc1ccncc1-c1cccc2cnccc12)C(=O)O [Example 2L] | 5.00 to 6.30 |
| CC(C)(Sc1ccncc1-c1cccnc1)C(=O)O [Example 2M] | 5.00 to 6.30 |
| CN(C)c1ccc(-c2cnccc2SC(C)(C)C(=O)O)cc1 [Example 2OO] | 5.00 to 6.30 |
| Cn1cc(-c2cnccc2SC(C)(C)C(=O)O)cn1 [Example 2QQ] | 5.00 to 6.30 |
| CC(C)(Sc1ccncc1-c1ccc(CC#N)cc1)C(=O)O [Example 2RR] | 5.00 to 6.30 |

Second part, the molecule after the results:

| pEC50 | Structure (SMILES) |
| --- | --- |
| 5.00 to 6.30 | CC(C)(Sc1ccncc1-c1ccccc1)C(=O)O [Example 2R] |
| 5.00 to 6.30 | CC(C)(Sc1ccncc1-c1ccc(CC(N)=O)cc1)C(=O)O [Example 2SS] |
| 5.00 to 6.30 | COc1ccc2cc(-c3cnccc3SC(C)(C)C(=O)O)ccc2c1 [Example 2V] |
| 5.00 to 6.30 | CC(C)(Sc1ccncc1-c1ccc(N)cc1)C(=O)O [Example 2YY] |
| 5.00 to 6.30 | CCOc1ccc2cc(-c3cnccc3SC(C)(C)C(=O)O)ccc2c1 [Example 2Y] |
| 5.00 to 6.30 | CC(C)(Sc1ccncc1-c1ccc2ccccc2c1)C(=O)O [Example 2Z] |
| 5.00 to 6.30 | N#Cc1ccc(-c2cccnc2SCC(=O)O)c2ccccc12 [Example 4B] |
| 5.00 to 6.30 | CC(C)(Sc1ncncc1-c1ccc(C#N)c2ccccc12)C(=O)O [Example 6B, 2-(5-(4-cyanonaphthalen-1-yl)pyrimidin-4-ylthio)-2-methylpropanoic Acid] |
